Measurements as given in patent US11331396B2, “Development of injectable fiducial markers for image guided radiotherapy with dual MRI and CT visibility” (TECHNICAL UNIVERSITY OF DENMARK, priority 2017, dated 2022).

Test: In-vitro confocal microscopy of markers containing fluorescent amphiphiles in PBS
Type: physicochemical
Conditions: LAP:GTH with co-solvent (5% PC or 10% EtOH)
Method: DOPE-RhB was dissolved in EtOH or triglycerides and added to the formulations in amounts resulting in the desired final concentrations (˜1.3*10^−3 ug/uL) in formulations consisting of lactose acetate:propionate 1:1/lactose isobutyrate co-formulated with either 25 wt % EtOH or 40 wt % triglyceride (GTO/GTH), with or without 10 wt % EtOH or 5 wt % PC (˜240 uL formulations in total). The DOPE-RhB solutions were made from a motherstock of 1 mg/mL DOPE-RhB in EtOH with serial dilution into EtOH/triglyceride (GTO/GTH). The injected formulations were imaged in PBS in 8-well microscope slides under the confocal microscope. […]
Laser Scanning Confocal Microscopy was performed using a Leica TCS SP5 Scanning Laser Confocal Microscope operated using a 61× wet objective and a 561 nm excitation DPPS Laser. Samples (˜5-10 uL) were prepared in 8 well microscope slides containing PBS buffer and imaged on the same day to study the distribution of fluorescence signal within the material. In case of Rhodamine B, emission was detected between 575 and 674 nm, while in case of carboxy fluorescein emission was detected between 480 and 580 nm. […]

Compound: CCCCCCCC/C=C\CCCCCCCC(=O)OC[C@H](COP(=O)(O)OCCNC(=O)c1ccc2c(c1)C(=O)OC21c2ccc(O)cc2Oc2cc(O)ccc21)OC(=O)CCCCCCC/C=C\CCCCCCCC.N.N [DOPE-CF]
- Distribution of fluorophore labeled lipid in the marker: clearly higher distribution of DOPE-RhB and DOPE-CF in the rim of the injected formulation
